Measurements as given in patent publication US20080235824A1, “Use of Esterase Genes as Selectable Markers for Transforming Plant Cells” (priority 2006, published 2008).

How the values were obtained:
[1] = tested on: geranium petiole explants; test: Survival of geranium petiole explants on regeneration medium with detergents; assay type: cell-based, Pelargonium X hortorum; conditions: for Survival of geranium petiole explants on regeneration medium: surviving/total explants
Experimental: Tween 20, a nonionic, fatty acid ester detergent, was evaluated as a potential selective agent for use in geranium (Pelargonium X hortorum) transformation experiments by placing geranium petiole explants into tissue culture with the addition to Tween 20 to the regeneration (shooting) medium normally used in geranium transformations (Robichon et al., 1995). Tween 20 was added at three concentrations: 1%, 0.1% and 0.01%. Each treatment consisted of 40 sterilized petiole explants placed in four tissue culture plates carrying 10 explants each. Survival of the explants was assayed weekly over four weeks on these media. Potential selective agent Span 20, also a nonionic, fatty acid ester detergent, was similarly evaluated, except that concentrations of 1%, 0.5% and 0.25% were evaluated over a twelve week period of time. The nonionic detergent Triton X-100, which is not a fatty acid ester detergent, was included for comparative purposes.

rice grain explants = test: Survival of rice grain explants on regeneration medium with Span 20; assay type: cell-based, Oryza sativa japonica var. TP-309; conditions: for Survival of rice grain explants on regeneration medium: surviving/total explants
Experimental: Span 20 was evaluated as a potential selective agent for use in transformation of rice (Oryza sativa japonica var. TP-309) in a manner similar to that described in Examples 1 and 2, except that the regeneration (shooting) medium used was appropriate for regeneration of rice from callus produced from seeds (Hiei et al., 1997). Selection of rice normally requires longer periods of time than geranium or tomato.

[2] = tested on: tobacco cultivar Xanthi leaf explants; test: Agrobacterium transformation of tobacco with selection on detergent or kanamycin; assay type: cell-based, Nicotiana tabacum; conditions: for Transformation frequency (%): confirmed by PCR
Description: Transgenic tobacco (Nicotiana tabacum) cultivar “Xanthi” plants were created using the Agrobacterium tumefaciens DNA delivery method [Horsch et al., 1985] using pIPG833. Selection was on 1% or on 0.05% Tween 20 added to both shoot and root regeneration media. As a control for comparative purposes, pIPG786 was used (carrying the nptII gene for kanamycin resistance) for transformation and 100 micrograms/ml kanamycin was used for selection.
Transgenic tobacco (Nicotiana tabacum) cultivar “Xanthi” plants were created using the Agrobacterium tumefaciens DNA delivery method [Horsch et al., 1985] using pIPG833. Selection was on 1% or on 0.05% Span 20 added to both shoot and root regeneration media.
Transgenic tobacco (Nicotiana tabacum) cultivar “Xanthi” plants were created using the Agrobacterium tumefaciens DNA delivery method [Horsch et al., 1985] using pIPG875. Selection was on 1% Span 20 added to the shoot regeneration medium and 0.05% Span 20 added to the root regeneration medium.

[3] = tested on: geranium cv. Avenida leaf petiole explants; test: Agrobacterium transformation of geranium with selection on Span 20 or hygromycin; assay type: cell-based, Pelargonium X hortorum; conditions: for No. of rooted shoots / Transformation frequency (%) / No. of independent petiole explants forming shoots: geranium Avenida, pIPG833 bovine PGE, 160 explants; for Transformation frequency (%): confirmed by PCR; for No. of independent petiole explants forming shoots: half in root medium; for Leaf petioles killed: Span 20 at 1%
Description: Transgenic geranium (Pelargonium X hortorum) cv. “Avenida” plants were created using the Agrobacterium tumefaciens DNA delivery method [Riggs et al., 2001; Sun et al., 2006] using pIPG833. Selection of leaf petiole explants was on 1%, 0.5% and 0.25% Span 20 added to shoot regeneration medium; beginning after three weeks, any shoots that emerged were excised from the petiole piece and transferred to root regeneration medium supplemented with Span at one half the concentration used in the shoot regeneration medium. As a control for comparative purposes, pIPG835 was used (carrying the hygromycin antibiotic resistance gene) for transformation and 10 micrograms/ml hygromycin was used for selection. Span 20 at 1% concentration killed 35% of the leaf petioles after three weeks, and 100% of the petioles after 10 weeks, and no shoots emerged. Span 20 at 0.5% concentration was highly efficient for geranium transformation, allowing no escapes and giving the same confirmed transformation frequency as Span 20 at 0.25%.

[4] = tested on: rice var. TP-309 callus produced from seeds; test: Agrobacterium transformation of rice with selection on Span 20; assay type: cell-based, Oryza sativa japonica var. TP-309; conditions: for No. of rooted shoots / Transformation frequency (%) / No. of shoots emerged from seed-derived callus: rice TP-309, pIPG833 bovine PGE, 60 explants; for Transformation frequency (%): confirmed by PCR; for No. of shoots emerged from seed-derived callus: half in root medium
Description: Transgenic rice (Oryza sativa japonica var. TP-309) plants were created using the Agrobacterium tumefaciens DNA delivery method and pIPG833, using callus produced from seeds (Hiei et al., 1997). Selection of was on 1% and 0.5% Span 20 added to shoot regeneration medium; any shoots that emerged were excised from the callus and transferred to root regeneration medium supplemented with Span 20 at one half the concentration used in the shoot regeneration medium. Span 20 at 1% concentration killed over 90% of the callus pieces after 15 weeks and since no shoots emerged, the experiment was terminated. However, three shoots out of 60 rice seeds initially placed into tissue culture emerged on Span 20 and two of these were positive for bovine PGE.

[5] = tested on: tobacco cultivar Xanthi leaf explants; test: Agrobacterium transformation of tobacco with selection on detergent or kanamycin; assay type: cell-based, Nicotiana tabacum; conditions: pIPG833 bovine PGE, 0.5% Span 20, 70 explants
[6] = tobacco Xanthi, nematode lipase (pIPG875), 1% Span 20 shoot medium, 0.05% root medium, 50 explants
[7] = tobacco Xanthi, pIPG833 bovine PGE, 0.5% Span 20, 70 explants
[8] = tobacco Xanthi, pIPG833 bovine PGE, 1% Span 20, 75 explants

## CCCCCCCCCCCC(=O)OCC(O)C1OCC(O)C1O (stereo not drawn) [Span 20]
[1]; 0.5% detergent, Week 1
  Survival of geranium petiole explants on regeneration medium: 46/46
[1]; 0.5% detergent, Week 3
  Survival of geranium petiole explants on regeneration medium: 35/46
[1]; 0.5% detergent, Week 7
  Survival of geranium petiole explants on regeneration medium: 23/46
[1]; 0.5% detergent, Week 12
  Survival of geranium petiole explants on regeneration medium: 5/46
[1]; 1% detergent, Week 1
  Survival of geranium petiole explants on regeneration medium: 114/114
[1]; 1% detergent, Week 3
  Survival of geranium petiole explants on regeneration medium: 74/114
[1]; 1% detergent, Week 7
  Survival of geranium petiole explants on regeneration medium: 11/114
[1]; 1% detergent, Week 12
  Survival of geranium petiole explants on regeneration medium: 0/114
[1]; summary of Table 1
  Killing of geranium explants in tissue culture (in words): required twelve weeks to completely kill all geranium explants at the 1% level
Rice grain explants; 0.5% Span 20, Week 4
  Survival of rice grain explants on regeneration medium: 60/60
Rice grain explants; 0.5% Span 20, Week 14
  Survival of rice grain explants on regeneration medium: 12/60
Rice grain explants; 0.5% Span 20, Week 20
  Survival of rice grain explants on regeneration medium: 2/60
Rice grain explants; 1% Span 20, Week 4
  Survival of rice grain explants on regeneration medium: 60/60
Rice grain explants; 1% Span 20, Week 14
  Survival of rice grain explants on regeneration medium: 5/60
Rice grain explants; 1% Span 20, Week 20
  Survival of rice grain explants on regeneration medium: 0/60
Rice grain explants; 1% Span 20, summary of Table 3
  Killing of rice explants in tissue culture (in words): completely killed all rice explants in twenty weeks
[2]; regeneration medium with 0.05% detergent
  Tissue provided with pIPG833 producing shoots: 41%
[2]; regeneration medium with 1% detergent
  Tobacco leaf material provided with bovine PGE on pIPG833 producing green shoots: 17%
[2]; [6]
  No. of independent calli forming shoots: 23
  No. of rooted shoots: 10
  Transformation frequency (%): 39%
[2]; tobacco Xanthi, pIPG833, detergent at the 0.05% level
  Transformation efficiency: 12%
[2]; [7]
  No. of independent calli forming shoots: 29
  Transformation frequency (%): 12%
[2]; [8]
  No. of rooted shoots: 13
  Transformation frequency (%): 8%
[2]; tobacco Xanthi, pIPG833 bovine PGE, 1% Span 20 in shoot and root media, 75 explants
  No. of independent calli forming shoots: 13
[2]; tobacco, pIPG875 nematode lipase, 0.05% Span 20 on rooting medium
  Fate of shoots on rooting medium: more than half of the shoots died
[3]; 0.25% Span 20
  No. of rooted shoots: 33
  Transformation frequency (%): 4%
[3]; 0.25% Span 20 shoot medium
  No. of independent petiole explants forming shoots: 33
[3]; 0.5% Span 20
  No. of rooted shoots: 6
  Transformation frequency (%): 4%
[3]; 0.5% Span 20 shoot medium
  No. of independent petiole explants forming shoots: 6
[3]; 1% Span 20
  No. of rooted shoots: 0
  Transformation frequency (%): 0%
[3]; 1% Span 20 shoot medium
  No. of independent petiole explants forming shoots: 0
[3]; geranium, pIPG833, Span 20 at 0.25% in shooting medium and 0.125% in rooting medium
  Nontransgenic escape plants: 81%
[3]; geranium, pIPG833, after 10 weeks
  Leaf petioles killed: 100%
[3]; geranium, pIPG833, after three weeks
  Leaf petioles killed: 35%
[4]; 0.5% Span 20
  No. of rooted shoots: 2
  Transformation frequency (%): 3%
[4]; 0.5% Span 20 shoot medium
  No. of shoots emerged from seed-derived callus: 3
[4]; 1% Span 20
  No. of rooted shoots: 0
  Transformation frequency (%): 0%
[4]; 1% Span 20 shoot medium
  No. of shoots emerged from seed-derived callus: 0
[4]; rice, pIPG833, Span 20 at 1%, after 15 weeks
  Callus pieces killed: over 90%
[5]
  No. of rooted shoots: 28
